Reference: publication PMC8878324, “Evaluation of New Antimicrobial Agents Based on tris(1H-Indol-3-yl)methylium Salts: Activity, Toxicity, Suppression of Experimental Sepsis in Mice” (Pharmaceuticals, 2022)
Values after ≈ are worked out from the molar mass of the structure shown.

Legend:
Type in all cases: cell-based
[1] = tested on: Escherichia coli ATCC 25922; test: MIC by broth microdilution; conditions: ATCC25922
Experimental: (§1) We have tested the antimicrobial activity in vitro of over 100 tris(indolyl)methane derivatives against 16 strains of Gram-positive, Gram-negative bacteria and fungi including either sensitive or drug-resistant strains from ATCC, as well as resistant clinical isolates from the culture collection of the Laboratory for Control of Hospital Infections (Sechenov University, Moscow, Russia). The minimum inhibitory concentrations (MICs) were determined by the microdilution method in a cation-adjusted Müller–Hinton medium for bacteria and in a liquid culture medium RPMI 1640 with L-glutamine without sodium bicarbonate for fungi in accordance with the requirements of the Institute of Clinical and Laboratory Standards (CLSI/NCCLS). […] As a rule, their activity against Gram-negative bacteria was usually not that high. […] For comparison, the antimicrobial activity of prototype 4 is shown. The antibacterial antibiotic levofloxacin and the antifungal amphotericin B were used as reference drugs (Table 1).
(§2) The synthesis of compounds and the scheme of their preparation and purification, as well as physicochemical characteristics, were described earlier. To evaluate the biological activity in vitro, the compounds were dissolved in DMSO at a concentration of 2.0–6.4 mg/mL, followed by preparation of two-fold dilutions in the same solvent, if necessary. The solutions were further diluted in an aqueous medium for the final concentration of DMSO not to exceed 1%, and the concentration of the compounds ranged from 64.0 to 0.13 μg/mL. To study compounds in vivo, solutions for intravenous administration in 5% glucose solution were prepared. Solutions were sterilized by filtration through 0.22 µm filters (Millipore, Burlington, MA, USA).
(§3) Strains of Gram-positive, Gram-negative bacteria and fungi including sensitive or drug-resistant strains from ATCC, as well as resistant clinical isolates from the culture collection of the Laboratory for Control of Hospital Infections (Sechenov University, Moscow, Russia), were used. Clinical isolates of Gram-positive bacteria Staphylococcus aureus 5 (MRSA), Staphylococcus aureus 10, Staphylococcus aureus 100KC (MRSA), Staphylococcus epidermidis 533, Staphylococcus haemoliticus 585 and Enterococcus faecium 569, as well as collection cultures of Gram-positive bacteria Staphylococcus aureus ATCC 700699, Staphylococcus aureus ATCC 25923, Staphylococcus aureus ATCC 3798 and collection cultures of Gram-negative bacteria Escherichia coli ATCC 25922, Klebsiella pneumoniae ATCC 13883, Proteus vulgaris ATCC 13315, Salmonella cholerasuis ATCC 14028, Pseudomonas aeruginosa ATCC 27853 and collection cultures of the yeast Candida albicans ATCC 14053 and the fungi Aspergillus niger ATCC 16404 were used. To grow the microorganisms, we used Trypticase Soy Agar (TSA, Sigma-Aldrich Co., Burlington, MA, USA). Trypticase Soy Agar, BBL, was used for cultivation of Staphylococcus spp. and E. coli. For cultivation of Enterococcus spp. and P. aeruginosa we used a ready-made dry medium Columbia Agar Base, BBL. The media were sterilized by autoclaving at 121 °C for 15 min. Yeast culture C. albicans was grown on Sabouraud agar (peptone—10 g, glucose—40 g, agar—20 g, distilled water—1 L, pH 6.0), and filamentous fungi A. niger was grown on potato–glucose agar (potatoes—200 g, glucose—20 g, agar—15 g, distilled water—1 L, pH 5.5–6.0).
(§4) To determine the antibacterial effect, a liquid Müller–Hinton medium (Becton, Dickinson and Company, Cockeysville, MD, USA) was used; to determine the effect of compounds on fungi we used RPMI 1640 medium with L-glutamine, without sodium bicarbonate, which was prepared from a dry medium (ICN Biomedicals Inc., Costa Mesa, CA, USA) by dilution in distilled water, subsequent buffering with 0.165 M of morpholinepropanesulfonic acid (MOPS, Acros Organics B.V.B.A., Morris Plains, NJ, USA) and adjusting the pH of the medium to 7.0 by adding 1 N of NaOH solution. […]

[2] = tested on: Staphylococcus aureus ATCC 3798; test: MIC by broth microdilution; conditions: ATCC3798
Experimental: as §1, §2, §3, §4

[3] = tested on: Staphylococcus aureus ATCC 700699; test: MIC by broth microdilution; conditions: ATCC700699
Experimental: as §1, §2, §3, §4

[4] = tested on: Staphylococcus epidermidis 533; test: MIC by broth microdilution
Experimental: as §1, §2, §3, §4

[5] = tested on: Staphylococcus haemoliticus 585; test: MIC by broth microdilution; conditions: for MIC: Staphylococcus haemoliticus 585
Experimental: as §1, §2, §3, §4

[6] = tested on: Aspergillus niger ATCC 16404; test: MIC by broth microdilution (RPMI 1640); conditions: ATCC16404
Experimental: as §1, §2, §3, §4

[7] = tested on: Candida albicans ATCC 14053; test: MIC by broth microdilution (RPMI 1640); conditions: ATCC14053
Experimental: as §1, §2, §3, §4

[8] = tested on: yeast (Candida albicans) and fungi (Aspergillus niger); test: Antifungal activity; conditions: for antifungal activity: in words
Experimental: as §1
The minimum inhibitory concentrations (MIC) for Gram-positive and Gram-negative bacteria were determined by two-fold serial microdilution method in a cation-adjusted Müller–Hinton medium for bacteria and in a liquid culture medium RPMI 1640 with L-glutamine without sodium bicarbonate for fungi in accordance with the requirements of the Institute of Clinical and Laboratory Standards (CLSI/NCCLS). The antibacterial antibiotic levofloxacin and the antifungal antibiotic amphotericin B from Sigma-Aldrich were used as reference drugs.

CCCn1cc([C+](c2cn(CCC)c3ccccc23)c2cn(C3=C(N(C)C)C(=O)NC3=O)c3ccccc23)c2ccccc21 [Compound 3, 1-(4-Dimethylamino-2,5-dioxo-2,5-dihydro-1H-pyrrol-3-yl) -1H-indol-3-yl) bis(1-propyl-1H-indol-3-yl) methylium chloride]
MIC [1]: 16 µg/mL | MIC [2]: 0.13 µg/mL | MIC [3]: 0.13 µg/mL | MIC [4]: 0.5 µg/mL | MIC [5]: > 64 µg/mL | activity against Staphylococcus haemoliticus 585 ([5]; in words, clinical isolate resistant to penicillins, aminoglycosides and erythromycin): not active | MIC [6]: 2 µg/mL | MIC [7]: 2 µg/mL | MIC ([8]; Candida albicans and Aspergillus niger): 2 µg/mL

OCCCCCn1cc([C+](c2cn(CCCCCO)c3ccccc23)c2cn(CCCCCO)c3ccccc23)c2ccccc21.[Cl-] [Compound 1, tris(1-(5-Hydroxypentyl)-1H-indol-3-yl) methylium chloride]
MIC [1]: 8 µg/mL | MIC [2]: 2 µg/mL | MIC [3]: 2 µg/mL | MIC [4]: 1 µg/mL | MIC [5]: 4 µg/mL | MIC [6]: > 64 µg/mL | MIC [7]: > 64 µg/mL | antifungal activity [8]: no antifungal activity at all

C[C@H]1COc2c(N3CCN(C)CC3)c(F)cc3c(=O)c(C(=O)O)cn1c23 [Levofloxacin, levofloxacin, reference compound]
MIC [1]: 0.06 µg/mL (≈ 0.166 µM) | MIC [2]: 32 µg/mL (≈ 88.6 µM) | MIC [3]: 16 µg/mL (≈ 44.3 µM) | MIC [4]: 0.5 µg/mL (≈ 1.38 µM) | MIC [5]: 0.5 µg/mL (≈ 1.38 µM)

CCCn1cc([C+](c2cn(CCC)c3ccccc23)c2cn(C3=C(N)C(=O)NC3=O)c3ccccc23)c2ccccc21.[Cl-] [Compound 2, (1-(4-Amino-2,5-dioxo-2,5-dihydro-1H-pyrrol-3-yl)-1H-indol-3-yl)bis(1-propyl-1H-indol-3-yl) methylium chloride]
MIC [1]: > 64 µg/mL | MIC [2]: 0.25 µg/mL | MIC [3]: 0.5 µg/mL | MIC [4]: 0.5 µg/mL | MIC [5]: 2 µg/mL | MIC [6]: 8 µg/mL | MIC [7]: 12 µg/mL | antifungal activity [8]: low antifungal activity
